Counter-ions that a name gives are not always drawn.
Experiments:
Test in all cases: Growth inhibition test (MTT) for cytotoxic properties
HT 29 = type: cell-based, human
Description: (§1) Growth Inhibition Test for Determination of the Cytotoxic Properties of Glycoconjugates of Batracyline and of Quinolone-a
(§2) The human colon cell lines SW 480 and HT 29 (ATCC no. CCL 228 and HBT-38) and the mouse melanoma cell line B 16 F 10 were cultured in Roux dishes in RPMI 1640 medium with addition of 10% FCS. The cultures were then trypsinized and taken up in RPMI plus 10% FCS to a cell count of 50,000 cells/ml. 100 μl of cell suspension/well were introduced into a 96 microwell plate and incubated for 1 day at 37° C. in a CO2 incubating cabinet. A further 100 μl of RPMI medium and 1 μl of dimethyl sulphoxide with the test substances were then added. The growth was checked after day 3 and day 6. 40 μl of MTT solution (3-(4,5-dimethylthiazol-2-yl)-2,5-diphenyltetrazoline bromide) with an initial concentration of 5 mg/ml of H2 O were added to each microwave. The plate was incubated for 5 hours in a CO2 incubating cabinet at 37° C. The medium was then sucked off and 100 μl of i-propanol/well were added. After shaking for 30 minutes with 100 μl of H2 O, the extinction was measured at 540 nm with a Titertek Multiskan MCC/340 (Flow).
(§3) The cytotoxic action of the glycoconjugates of batracyline described is shown in Table 1a as the IC50 value in each case for the SW 480 and HT 29 cell lines.

SW 480 = type: cell-based, human
Description: as §1, §2, §3

B 16 F 10 = type: cell-based, mouse; conditions: Table 1b
Description: as §1, §2

[1] = Table 1a, glycoconjugates of batracyline

| Molecule | IC50 (HT 29; Table 1b) | IC50 (SW 480; Table 1b) | IC50 (B 16 F 10) | IC50 (HT 29; [1]) | IC50 (SW 480; [1]) |
| --- | --- | --- | --- | --- | --- |
| CC1OC(Oc2ccc(NC(=S)NC3C=CCC4CN(c5c(F)cc6c(=O)c(C(=O)O)cn(C7CC7)c6c5Cl)CC43)cc2)C(O)C(OCC(=O)O)C1O (mixture of isomers) [Example 12.12, N-[O-(3-O-Carboxymethyl-β-L-fucosyl)-4hydroxy-phenylamino-thiocarbonyl-quinolone-a, di-sodium salt] | 13 µM | 8 µM | 0.5 µM | – | – |
| Cc1csc2c(C(=O)O)c(=O)c3cc(F)c(N4CC5C(C)C=CC(NC(=O)C(CCCCN)NC(=S)Nc6ccc(OC7OC(C)C(O)C(OCC(=O)O)C7O)cc6)C5C4)cc3n12 (mixture of isomers) [Example 14.3, N-{N^α -[O-(3-O-Carboxymethyl-β-L-fucosyl)-4-hydroxy-phenylamino-thiocarbonyl]-lysyl}-quinolone-c, di-sodium salt] | 4 µM | 8 µM | 4 µM | – | – |
| C[C@@H]1O[C@H](Oc2ccc(NC(=S)NCCCC[C@H](N)C(=O)N[C@H](C)C(=O)NC3C=CCC4CN(c5c(F)cc6c(=O)c(C(=O)O)cn(C7CC7)c6c5Cl)CC43)cc2)[C@@H](O)[C@H](OCC(=O)O)[C@@H]1O (stereo partly drawn) [Example 10.1, N-{N^ε -[O(3-O-Carboxymethyl-β-L-fucosyl)-4-hydroxy-phenylamino-thiocarbonyl]-lysyl-D-alanyl}-quinolone-a] | > 250 µM | 50 µM | 15 µM | – | – |
| CO[C@H]1[C@H](O)[C@@H](Oc2ccc(NC(=S)NCCCC[C@H](N)C(=O)N[C@@H](C)C(=O)NC3C=CCC4CN(c5c(F)cc6c(=O)c(C(=O)O)cn(C7CC7)c6c5Cl)CC43)cc2)O[C@@H](C)[C@H]1O (stereo partly drawn) [Example 10.2, N-{N^ε -[O-(3-O-Methyl-β-L-fucosyl)-4-hydroxy-phenylamino-thiocarbonyl]-lysyl-alanyl}-quinolone-a] | 3 µM | 4 µM | 5 µM | – | – |
| CO[C@H]1[C@H](O)[C@@H](Oc2ccc(NC(=S)N[C@@H](C)C(=O)NC3C=CCC4CN(c5c(F)cc6c(=O)c(C(=O)O)cn(C7CC7)c6c5Cl)CC43)cc2)O[C@@H](C)[C@H]1O (some centres unmarked) [Example 12.2] | – | 4 µM | 0.8 µM | – | – |
| N-{N^α -[O-(3-O-Methyl-β-L-fucosyl)-4-hydroxy-phenylamino-thiocarbonyl]-lysy l-D-alanyl}-batracyline [Example 4.3] | – | – | – | 20 µM | 20 µM |
| N-{N^α -[O-(3-O-Methyl-β-L-fucosyl)-4-hydroxyphenylamino-thiocarbonyl]-N. sup.ε -[4-hydroxyethylamino-2-[O-(3-O-methyl-β-L-fucosyl)-4-hydroxyphenylam ino]triazin-6-yl]]-lysyl-D-alanyl}-batracyline [Example 5.8] | – | – | – | > 250 µM | 100 µM |
| N-{N^α -[O-(3-O-Methyl-β-L-fucosyl)-4-hydroxyphenylamino-thiocarbonyl]-N. sup.ε -[O-(3-O-carboxymethyl-β-L-fucosyl)-4-hydroxyphenylamino-thiocarbonyl ]-lysyl-D-alanyl}-batracyline [Example 5.2] | – | – | – | 55 µM | 20 µM |
| N-{N^α -[O-(β-D-Galactopyranosyl)-4-hydroxy-phenylamino-thiocarbonyl]-lysyl- D-alanyl}-batracyline [Example 4.6] | – | – | – | 10 µM | 10 µM |
| N-{N^α,N^ε -Bis-10-(3-O-carbamoylmethyl-β-D-galactopyranosyl)-4-hydroxy-phenylam ino-thiocarbonyl]-lysyl-glycyl}-batracyline [Example 6.60] | – | – | – | 40 µM | 50 µM |
| N-{N^α,N^ε -Bis-[O-(2-hydroxyethyl-β-L-fucosyl)-4-hydroxy-phenylamino-thiocarbon yl]-lysyl-D-alanyl}-batracyline [Example 6.10] | – | – | – | 50 µM | 50 µM |
| N-{N^α,N^ε -Bis-[O-(3,4-di-O-methyl-β-D-galactopyranosyl)-4-hydroxy-phenylamino- thiocarbonyl]-lysyl-D-seryl}-batracyline [Example 6.40] | – | – | – | 60 µM | 170 µM |
| N-{N^α,N^ε -Bis-[O-(3,4-di-O-methyl-β-D-galactopyranosyl)-4-hydroxy-phenylamino- thiocarbonyl]-lysyl-seryl}-batracyline [Example 6.32] | – | – | – | 60 µM | 60 µM |
| N-{N^α,N^ε -Bis-[O-(3-O-carbamoylmethyl-β-D-galactopyranosyl)-4-hydroxy-phenylam ino-thiocarbonyl]-lysyl-D-seryl}-batracyline [Example 6.43] | – | – | – | 80 µM | 90 µM |
| N-{N^α,N^ε -Bis-[O-(3-O-carboxymethyl-β-D-galactopyranosyl)-4-hydroxy-phenylamin o-thiocarbonyl]-lysyl-D-asparagyl}-batracyline, di-sodium salt [Example 6.46] | – | – | – | 100 µM | 120 µM |
| N-{N^α,N^ε -Bis-[O-(3-O-carboxymethyl-β-D-galactopyranosyl)-4-hydroxy-phenylamin o-thiocarbonyl]-lysyl-glycyl}-batracyline, di-sodium salt [Example 6.59] | – | – | – | 50 µM | 50 µM |
| N-{N^α,N^ε -Bis-[O-(3-O-carboxymethyl-β-L-fucosyl)-4-hydroxy-phenylamino-thiocar bonyl]-lysyl}-batracyline [Example 6.25] | – | – | – | 40 µM | 50 µM |
| N-{N^α,N^ε -Bis-[O-(3-O-methoxycarbonylmethyl-β-D-galactopyranosyl)-4-hydroxy-ph enylamino-thiocarbonyl]-lysyl-D-alanyl}-batracyline [Example 6.80] | – | – | – | 25 µM | 40 µM |
| N-{N^α,N^ε -Bis-[O-(3-O-methyl-α-D-mannopyranosyl)-4-hydroxy-phenylamino-thioca rbonyl]-lysyl-seryl}-batracyline [Example 6.36] | – | – | – | 70 µM | 70 µM |
| N-{N^α,N^ε -Bis-[O-(3-O-methyl-β-D-galactopyranosyl)-4-hydroxy-phenylamino-thioc arbonyl]-lysyl-seryl}-batracyline [Example 6.30] | – | – | – | 70 µM | 60 µM |
| N-{N^α,N^ε -Bis-[O-(3-O-methyl-β-L-fucosyl)-4-hydroxy-phenylamino-thiocarbonyl]- lysyl-D-seryl}-batracyline [Example 6.23] | – | – | – | 45 µM | 107 µM |
| N-{N^α,N^ε -Bis-[O-(3-O-n-propyl-β-L-fucosyl)-4-hydroxy-phenylamino-thiocarbonyl ]lysyl-D-alanyl}-batracyline [Example 6.7] | – | – | – | > 250 µM | 60 µM |
| N-{N^α,N^ε -Bis-[O-(α-L-rhamnosyl)-4-hydroxy-phenylamino-thiocarbonyl]-lysyl-D- alanyl}-batracyline [Example 6.15] | – | – | – | > 250 µM | > 250 µM |
| N-{N^ε -O-(2-O-Methyl-β-L-fucosyl)-4-hydroxy-phenylamino-thiocarbonyl]-lysyl -D-alanyl}-batracyline [Example 3.2] | – | – | – | 75 µM | 100 µM |
| N-{N^ε -[O-(3-O-Carbamoylmethyl-β-L-fucosyl)-4-hydroxy-phenylamino-thiocarbo nyl]-lysyl-D-alanyl}-batracyline, sodium salt [Example 3.10] | – | – | – | 125 µM | 100 µM |
| N-{Nα-[O-(β-L-Fucosyl)-4-hydroxy-phenylamino-thiocarbonyl]-lysy l-D-alanyl}-batracyline [Example 4.1] | – | – | – | 30 µM | 25 µM |

Reference: US6271342A, “Sugar-modified cytostatics” (Bayer Aktiengesellschaft, priority 1995, dated 2001)
